For assay [1], the target named is T1, TGR5 (NCI-H716 cell line) (Homo sapiens, UniProt Q8TDU6).
T1 sequence (Q8TDU6 1-330): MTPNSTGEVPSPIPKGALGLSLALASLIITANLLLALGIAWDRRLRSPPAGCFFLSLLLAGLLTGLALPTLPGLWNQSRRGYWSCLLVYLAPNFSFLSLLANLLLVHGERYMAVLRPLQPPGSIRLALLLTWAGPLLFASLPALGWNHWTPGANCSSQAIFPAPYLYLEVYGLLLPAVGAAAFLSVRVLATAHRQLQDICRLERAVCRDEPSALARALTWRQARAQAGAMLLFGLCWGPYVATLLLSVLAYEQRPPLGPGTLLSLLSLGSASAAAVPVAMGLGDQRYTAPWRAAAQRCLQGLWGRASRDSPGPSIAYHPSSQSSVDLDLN
Briefly: NCI-H716 cAMP Agonist EC50 Determination.

Another assay deals with T2, TGR5 (STC1 cell line) (Mus musculus, UniProt Q80SS6).
T2 sequence (Q80SS6 1-329): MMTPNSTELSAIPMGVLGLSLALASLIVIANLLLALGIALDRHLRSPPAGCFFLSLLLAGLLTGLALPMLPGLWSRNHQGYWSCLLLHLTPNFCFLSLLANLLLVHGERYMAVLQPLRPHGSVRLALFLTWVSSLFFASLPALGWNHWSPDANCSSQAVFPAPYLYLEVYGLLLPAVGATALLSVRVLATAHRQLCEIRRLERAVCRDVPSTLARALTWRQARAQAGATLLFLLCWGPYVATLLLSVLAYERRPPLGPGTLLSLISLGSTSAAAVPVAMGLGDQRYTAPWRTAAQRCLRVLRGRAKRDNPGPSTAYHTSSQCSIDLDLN
Briefly: STC1 cAMP Agonist EC50 Determination.

Bounds are passed on as bounds.

Procedure for TGR5 (STC1 cell line): Cell stocks were maintained and grown in a sub-confluent state using standard cell culture procedures. The day before the experiment, the cells were harvested with non-enzymatic cell dissociation buffer and resuspended in complete growth media at 4E5 c/ml. […] The seeded plates were incubated overnight at 37° C.
On the day of the experiment, Assay Buffer containing: HBSS with Ca^2+and Mg^2+; 5 μM HEPES; 0.1% BSA; and, 0.5 μM IBMX was prepared. The growth medium was washed from the cell plates and replaced with 20 μL of Assay Buffer. […] The reaction was stopped by the addition of 20 μL 0.1% Formic Acid to all wells. Sixty minutes later 30 μL 3 M deuterated AMP was added to all wells (as a control for volume addition to the mass spec). Plates were mixed on a plate shaker for 1 min and centrifugated (5 min 3000 RPMs no brakes).
Plates were run on a 4000 QTrap triple-quadrapole Mass spectrometer in positive ion mode coupled with a Biocius RapidFire 300is. […] Two ions (cAMP and deuterated AMP were measured using Multiple Reaction Monitoring (MRM) in positive ion mode and the area under the curve (AUC) was determined for each of the ions.
The data from the Mass Spec/Rapid Plate AUC for cAMP and deuterated AMP were imported to an Excel worksheet. A Normalized signal (NS) was generated for each well=(cAMP AUC for the well/deut AMP AUC for the well)*average deut AMP AUC for the plate). nM cAMP was calculated for each well from the cAMP standard curves located on each plate by first calculating the slope and deriving the intercept (b).
EC50 values were determined from a 4-point fit (Hill equation) of a single 11-point compound dosing.

For `COc1cc(C2CCCc3nc(SCc4ccncc4F)n(-c4ccc(F)cc4)c32)ccc1Cl` (centres unmarked) [Example 51, 2-((3-fluoropyridin-4-yl)methylthio)-7-(4-chloro-3-methoxyphenyl)-1-(4-fluorophenyl)-4,5,6,7-tetrahydro-1H-benzo[d]imidazole trifluoroacetic acid], the figures for the EC50 (in assay [1]; on TGR5 (STC1 cell line)) were over 50 µM and 5.5 µM, respectively.
For `COc1cc(C2CCCc3nc(SCc4ncccc4F)n(-c4ccc(F)cc4)c32)ccc1Cl` (centres unmarked) [Example 52, 2-((3-fluoropyridin-2-yl)methylthio)-7-(4-chloro-3-methoxyphenyl)-1-(4-fluorophenyl)-4,5,6,7-tetrahydro-1H-benzo[d]imidazole trifluoroacetic acid] the same measures were over 50 µM and 0.45 µM.
The corresponding values for `COc1cc(C2CCCc3nc(SCc4c(Cl)cncc4Cl)n(-c4ccc(F)cc4)c32)ccc1Cl` (centres unmarked) [Example 54] are over 50 µM and 4.41 µM.
The corresponding values for `COc1cc(C2CCCc3nc(SCc4c(F)cncc4Cl)n(-c4ccc(F)cc4)c32)ccc1Cl` (centres unmarked) [Example 55, 7-(4-chloro-3-methoxyphenyl)-2-[[(3-chloro-5-fluoropyridin-4-yl)methyl]sulfanyl]-1-(4-fluorophenyl)-4,5,6,7-tetrahydro-1H-1,3-benzodiazole bis(trifluoroacetic acid)] are over 50 µM and 0.18 µM.
In the case of `COc1cc(C2CCCc3nc(SCc4c(F)cncc4Br)n(-c4ccc(F)cc4)c32)ccc1Cl` (centres unmarked) [Example 56, 2-((3-bromo-5-fluoropyridin-4-yl)methylthio)-7-(4-chloro-3-methoxyphenyl)-1-(4-fluorophenyl)-4,5,6,7-tetrahydro-1H-benzo[d]imidazole trifluoroacetic acid], the EC50 (as a rule, the concentration that produces a half-maximal response) in assay [1] was over 50 µM; on TGR5 (STC1 cell line), 0.13 µM.
With `COc1cc(C2CCCc3nc(SCc4ncccn4)n(-c4ccc(F)cc4)c32)ccc1Cl` (centres unmarked) [Example 57, 7-(4-chloro-3-methoxyphenyl)-1-(4-fluorophenyl)-2-[(pyrimidin-2-ylmethyl)sulfanyl]-4,5,6,7-tetrahydro-1H-1,3-benzodiazole trifluoroacetic acid], the EC50 was over 50 µM in assay [1] and 0.65 µM on TGR5 (STC1 cell line).
For `COc1cc(C2CCCc3nc(SCc4sccc4Cl)n(-c4ccc(F)cc4)c32)ccc1Cl` (centres unmarked) [Example 58, 2-((3-chlorothiophen-2-yl)methylthio)-7-(4-chloro-3-methoxyphenyl)-1-(4-fluorophenyl)-4,5,6,7-tetrahydro-1H-benzo[d]imidazole trifluoroacetic acid] the same measures were over 50 µM and 1.1 µM.
For `COc1cc(C2CCCc3nc(SCc4c(F)c[n+]([O-])cc4F)n(-c4ccc(F)cc4)c32)ccc1Cl` (centres unmarked) [Example 59, 4-((7-(4-chloro-3-methoxyphenyl)-1-(4-fluorophenyl)-4,5,6,7-tetrahydro-1H-benzo[d]imidazol-2-ylthio)methyl)-3,5-difluoropyridine 1-oxide trifluoroacetic acid] the same measures were over 50 µM and 2.02 µM.
The corresponding values for `COc1cc(C2CCCc3nc(SCc4c(Br)cncc4Br)n(-c4ccc(F)cc4)c32)ccc1Cl` (centres unmarked) [Example 60, 2-((3,5-dibromopyridin-4-yl)methylthio)-7-(4-chloro-3-methoxyphenyl)-1-(4-fluorophenyl)-4,5,6,7-tetrahydro-1H-benzo[d]imidazole] are over 50 µM and 15.5 µM.
`COc1cc(C2CC(C)Cc3nc(SCc4c(F)cccc4Cl)n(-c4ccc(F)cc4)c32)ccc1Cl` (centres unmarked) [Example 61, 7-(4-chloro-3-methoxyphenyl)-2-[[(2-chloro-6-fluorophenyl)methyl]sulfanyl]-1-(4-fluorophenyl)-5-methyl-4,5,6,7-tetrahydro-1H-1,3-benzodiazole]: the EC50 in assay [1] is over 50 µM; at TGR5 (STC1 cell line), 3.89 µM.

The values above are taken from US10077241B2 (Janssen Pharmaceutica NV, priority 2014, dated 2018).
